One may read the inhibition as the relative decrease from the control value, in per cent. A word on the IC50: it is the midpoint of a concentration-inhibition curve. As a reminder, the Km is the substrate concentration at which the rate is half of its maximum. By Ki is commonly meant the dissociation constant of the complex between target and ligand, obtained from inhibition or displacement.

In assay [1] the test system is Endothelial cell. Nature of the assay: Inhibition of bovine aortic endothelial cells PDE2 using cAMP as substrate at 10 uM in presence of cGMP. As to conditions: Bos taurus. The class given is cell-based.
The species entered for assay [2] is Bos taurus. Nature of the assay: Inhibition of bovine aortic PDE3 using cAMP as substrate at 10 uM in presence of rolipram.
Assay [3] is described as follows: Inhibition of bovine aortic PDE4 using cAMP as substrate in presence of cGMP. Further details: species or system Bos taurus.
Assay [4] has as its target cGMP-specific 3',5'-cyclic phosphodiesterase (Bos taurus) (UniProt Q28156). Nature of the assay: Inhibition of bovine aortic PDE5 using cGMP as substrate at 10 uM in presence of EGTA.
Assay [5] in a line: Inhibition of bovine aortic endothelial cells PDE2 using cAMP as substrate in presence of cGMP. The class given is cell-based, Bos taurus. Particulars: endothelial cell.
A short description of assay [6]: Inhibition of bovine aortic PDE3 using cAMP as substrate in presence of rolipram. More on the design: species or system Bos taurus.
The species named for assay [7] is Bos taurus. Nature of the assay: Ratio of tofisopam IC50 to compound IC50 for bovine aortic PDE4 using cAMP as substrate in presence of cGMP.
For assay [8], the species on record is Bos taurus.
Description: Activity of bovine aortic PDE4
Assay [9] in a line: Competitive inhibition of bovine aortic PDE4 using cAMP as substrate by Lineweaver-Burk plot analysis. More on the design: species or system Bos taurus.
Assay [10] is filed under the species Bos taurus. Nature of the assay: Inhibition of bovine aortic PDE1 using calmodulin activated cGMP as substrate at 10 uM.
Assay [11] deals with cGMP-specific 3',5'-cyclic phosphodiesterase (Bos taurus, UniProt Q28156). Nature of the assay: Inhibition of bovine aortic PDE5 using cGMP as substrate in presence of EGTA.

For the compound `CCOc1cc2c(cc1OCC)C(CC)C(C)=NN=C2c1ccc(Cl)cc1` (stereo not drawn), the inhibition turned out to be 38% in assay [1], 4% in [2] and 39% in assay [4]. In addition, in [3], the IC50 came out at 200 nM. With `CCOc1cc2c(cc1OCC)C(c1ccccc1)=NCC(=O)N2`, the IC50 in assay [3] came to 950 nM. The same measure, in the same setting: in the case of `COc1cc2c(cc1OC)C(c1ccccc1)=NNC(=O)C2` it was 7700 nM; in that of `CCOc1ccc(C(=O)c2ccc3ccccc3c2)cc1OCC`, 5000 nM. As to `CCC1C(C)=NN=C(c2ccc(OC)c(OC)c2)c2cc(OC)c(OC)cc21` (stereo not drawn) [TOFISOPAM], the results for the IC50 in assay [5], in assay [3] and in [6] were 900 nM, 680 nM and 5.9 µM, respectively.

As to `COc1cc2c(cc1OC)N(C)C(=O)CN=C2CCc1ccccc1`, the IC50 in [3] was above 20000 nM.

In the case of `CCOc1ccc(C(=O)N2CCN(Cc3ccccc3)CC2)cc1OCC`, the IC50 in assay [3] was determined as 2300 nM.

As to `CCOc1cc2c(cc1OCC)N(C)C(=O)CN=C2c1ccccc1`, the IC50 in assay [3] is 860 nM. As to `CCOc1ccc(C(=O)c2cccc3ccccc23)cc1OCC`, the IC50 in [3] was determined as 4300 nM. Still for that read-out and setting: in the case of `COc1ccc(C(=O)N2CCCCC2)cc1OC` it was 9600 nM. For the compound `CCOc1cc2c(cc1OCC)C(c1cc3ccccc3s1)=NN(C)C(=O)C2`, the Ratio IC50 in assay [7] was determined as 7. Moreover, the IC50 in assay [3] is 87 nM. Consider `COc1cc2c(cc1OC)C(c1ccc(Cl)cc1)=NNC(=O)C2`, for which the IC50 in assay [3] is 1500 nM. Still for that read-out and setting: in the case of `CCOc1ccc(C(=O)N2CCN(c3ccccc3)CC2)cc1OCC` it was 17000 nM.

In the case of `CCOc1cc2c(cc1OCC)C(CC)C(C)=NN=C2c1cccc(Cl)c1` (stereo not drawn), in [1], the inhibition came to 44%. Further, the IC50 in assay [3] was determined as 390 nM. `COc1cc2c(cc1OC)C(c1cc3ccccc3s1)=NNC(=O)C2`: in assay [3], the IC50 turned out to be 1200 nM. On the same count and under the same terms, in the case of `CCOc1ccc(Cc2nccc3cc(OCC)c(OCC)cc23)cc1OCC` [ETHAVERINE] it was 400 nM; in that of `COc1cc2c(cc1OC)N(C)C(=O)CN=C2c1cccc(Cl)c1`, above 20000 nM. With `COc1cc2c(cc1OC)C(c1ccccc1)=NCC(=O)N2`, the half-inhibitory concentration (IC50) in assay [3] was above 20000 nM. The same measure, in the same setting: in the case of `CCOc1ccc(C(=O)c2ccc(Cl)cc2)cc1OCC` it was above 20000 nM. As to `Nc1ncnc2c1ncn2[C@@H]1O[C@@H]2COP(=O)(O)O[C@H]2[C@H]1O`, the Michaelis-Menten constant (Km) in assay [8] worked out at 0.71 µM. Consider `COc1cc2c(cc1OC)N(C)C(=O)CN=C2N1CCCCC1`, for which, in assay [3], the IC50 is above 20000 nM. Turning to `COc1cc2c(cc1OC)C(c1ccc(Cl)c(Cl)c1)=NNC(=O)C2`, the IC50 in [3] was determined as 300 nM. As to `CCOc1cc2c(cc1OCC)C(c1cc3ccccc3s1)=NNC(=O)C2`, the IC50 in [3] stood at 260 nM.

Turning to `COc1cc2c(cc1OC)N(C)C(=O)CN=C2c1ccccc1`, the IC50 in assay [3] was determined as 18000 nM. On to `COc1cc2c(cc1OC)C(c1cc3ccccc3s1)=NN(C)C(=O)C2`, for which the IC50 in assay [3] amounted to 300 nM. The same measure, in the same setting: the value for `CCOc1ccc(C(=O)c2ccc(N(C)Cc3ccccc3)cc2)cc1OCC` was 2200 nM. Same read-out and setting: the value for `CCOc1ccc(C(=O)c2ccc(Cl)c(Cl)c2)cc1OCC` was 7900 nM. In the case of `CCOc1ccc(C(=O)c2ccccc2Cl)cc1OCC`, in assay [9], the Ki worked out at 420 nM. Moreover, the inhibition came to 21% in assay [10], 46% in assay [1], 24% in assay [2] and 4% in [4]. Further, in [3], the IC50 came to 1400 nM.

Consider `CCOc1ccc(C(=O)c2ccccc2)cc1OCC`, for which the IC50 in assay [3] is 2900 nM. On the same count and under the same terms, in the case of `CCOc1cc2c(cc1OCC)C(c1ccc(Cl)cc1)=NNC(=O)C2` it was 800 nM; in that of `COc1cc2c(cc1OC)N(C)C(=O)CN=C2C#Cc1ccccc1`, 1600 nM. Turning to `CCOc1ccc(C2=NNC(=O)Cc3ccccc32)cc1OCC`, the inhibition in [10] worked out at 3%; in [1], 27%; in assay [2], 12%; in assay [4], 17%. Besides, the IC50 in assay [3] amounted to 190 nM. As to `CCOc1ccc(C2=NN(C)C(=O)Cc3ccccc32)cc1OCC`, the Ki in assay [9] is 66 nM. In assay [3], the 50% inhibitory concentration (IC50) stood at 140 nM. Consider `COc1cc2c(cc1OC)C(c1ccc3ccccc3c1)=NNC(=O)C2`, for which the IC50 in assay [3] was found to be 1500 nM. The same measure, in the same setting: the value for `COc1cc2c(cc1OC)N(C)C(=O)CN=C2c1ccc(Cl)cc1` was above 20000 nM; that for `COc1cc2c(cc1OC)C(c1cccc(Cl)c1)=NNC(=O)C2` was 7700 nM; that for `CCOc1cc2c(cc1OCC)C(c1cccc(Cl)c1)=NNC(=O)C2` was 1400 nM. With `COc1cc2c(cc1OC)C(c1cccc(Cl)c1)=NN=C(C)C2` [GIRISOPAM], the IC50 was found to be 4000 nM in [5], 3200 nM in assay [3] and 12.5 µM in [11]. Also, in [2], the inhibition came to 22%. As to `COc1cc2c(cc1OC)N(C)C(=O)CN=C2c1cc2ccccc2s1`, in assay [3], the IC50 is 2300 nM.

On to `COc1cc2c(cc1OC)C(c1ccccc1)=NN(C)C(=O)C2`, for which the IC50 in assay [3] amounted to 5100 nM. Same read-out and setting: the value for `COc1cc2c(cc1OC)N(C)C(=O)CN=C2/C=C/c1ccccc1` was 8400 nM. In the case of `COc1ccc(Cc2nccc3cc(OC)c(OC)cc23)cc1OC` [PAPAVERINE], the IC50 in [3] came out at 1100 nM. Still for that read-out and setting: in the case of `CCOc1ccc(C(=O)N2CCCCC2)cc1OCC` it was 3600 nM. As to `CCOc1cc2c(cc1OCC)C(c1ccccc1)=NNC(=O)C2`, the inhibition in assay [10] was found to be 37%; in [1] it was 5%; in assay [2], 30%; in assay [4], 30%. Further, the IC50 in [3] was 800 nM.
